Measurements as given in patent US20120184536A1, “COMPOSITIONS COMPRISING SPECIFIC UGT INHIBITORS AND METHODS OF USE THEREOF” (The Board of Trustees of the University of Arkansas, priority 2009, published 2012).
Read-outs that look alike come from different tables or passages of the source.

Key:
UGT1A6 [1] = target: T1, UGT1A6 (Homo sapiens, UniProt P19224); settings: cited from earlier work; for inhibition type toward UDP-GlcUA / inhibition type with 4-MU: 4-MU glucuronidation
T1 sequence (P19224 27-532): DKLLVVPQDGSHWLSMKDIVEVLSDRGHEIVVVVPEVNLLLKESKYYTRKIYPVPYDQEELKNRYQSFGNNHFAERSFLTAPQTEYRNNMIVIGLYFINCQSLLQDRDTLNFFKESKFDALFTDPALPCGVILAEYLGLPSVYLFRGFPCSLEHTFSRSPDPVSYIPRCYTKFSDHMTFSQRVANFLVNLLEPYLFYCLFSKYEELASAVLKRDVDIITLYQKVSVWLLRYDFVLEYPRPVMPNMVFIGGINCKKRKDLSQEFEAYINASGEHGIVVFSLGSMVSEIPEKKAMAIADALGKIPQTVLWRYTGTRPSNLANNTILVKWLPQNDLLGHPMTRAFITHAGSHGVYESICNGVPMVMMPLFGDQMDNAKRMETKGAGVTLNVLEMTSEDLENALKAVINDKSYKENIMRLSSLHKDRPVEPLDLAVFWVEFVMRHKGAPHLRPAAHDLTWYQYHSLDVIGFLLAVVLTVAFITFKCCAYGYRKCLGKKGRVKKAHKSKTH

UGT2B7 [2] = target: T2, UGT2B7 (Homo sapiens, UniProt P16662)
T2 sequence (P16662 24-529): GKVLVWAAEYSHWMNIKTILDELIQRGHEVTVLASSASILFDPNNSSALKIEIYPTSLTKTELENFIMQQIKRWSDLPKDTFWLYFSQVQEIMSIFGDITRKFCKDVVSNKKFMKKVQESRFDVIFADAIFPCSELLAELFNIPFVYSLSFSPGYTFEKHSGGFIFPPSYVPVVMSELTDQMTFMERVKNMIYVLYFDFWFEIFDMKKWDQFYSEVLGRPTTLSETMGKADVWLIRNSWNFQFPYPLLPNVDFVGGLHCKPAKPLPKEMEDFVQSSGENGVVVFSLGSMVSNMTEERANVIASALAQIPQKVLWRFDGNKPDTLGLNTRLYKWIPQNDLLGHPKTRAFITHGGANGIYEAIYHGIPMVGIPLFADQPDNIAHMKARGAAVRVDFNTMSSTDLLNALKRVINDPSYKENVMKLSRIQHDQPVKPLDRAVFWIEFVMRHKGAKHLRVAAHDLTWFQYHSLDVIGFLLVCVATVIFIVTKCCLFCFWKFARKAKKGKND
Protocol: (§5) Recombinant UGT Isoform Incubations—Recombinant human UGT2B7 was produced in HEK239 cells as previously described (6). […] For inhibition assays, recombinant UGT membrane protein was incubated in reaction buffer with substrate, inhibitor, and co-substrate as previously described (6, 9).
(§6) IC50 assays—UGT2B7 or 1A10 were incubated with fixed concentrations of each substrate and co-substrate and increasing concentrations of inhibitor.
(§7) The results of these experiments were analyzed and apparent kinetic and inhibition parameters were determined using Prism 4 software (GraphPad, San Diego, Calif.) and DynaFit (BioKin, Watertown, Mass.). TLC and HPLC Analysis—For inhibition assays using all substrates other than 7-OH-warfarin, aliquots (60 μl) of each incubation were analyzed using thin layer chromatography (TLC) as previously described (3). For inhibition assays using 7-OH-warfarin as a substrate, samples were analyzed using HPLC as described previously (10). Primary standards for the 7-OH-warfarin glucuronide were not available; therefore, product concentrations were estimated using the external standard response for the 7-OH-warfarin substrate.

UGT1A10 [3] = target: T3, UGT1A10 (Homo sapiens, UniProt Q9HAW8); test: Screening assay, 4-MU glucuronidation by UGT1A10; assay type: biochemical; parameters: His; made in house; host or cells: baculovirus-infected Sf9 insect cells; settings: 250 μM 4-MU; 0, 50 or 200 μM inhibitor; FIG. 2 / FIG. 10
T3 sequence (Q9HAW8 26-530): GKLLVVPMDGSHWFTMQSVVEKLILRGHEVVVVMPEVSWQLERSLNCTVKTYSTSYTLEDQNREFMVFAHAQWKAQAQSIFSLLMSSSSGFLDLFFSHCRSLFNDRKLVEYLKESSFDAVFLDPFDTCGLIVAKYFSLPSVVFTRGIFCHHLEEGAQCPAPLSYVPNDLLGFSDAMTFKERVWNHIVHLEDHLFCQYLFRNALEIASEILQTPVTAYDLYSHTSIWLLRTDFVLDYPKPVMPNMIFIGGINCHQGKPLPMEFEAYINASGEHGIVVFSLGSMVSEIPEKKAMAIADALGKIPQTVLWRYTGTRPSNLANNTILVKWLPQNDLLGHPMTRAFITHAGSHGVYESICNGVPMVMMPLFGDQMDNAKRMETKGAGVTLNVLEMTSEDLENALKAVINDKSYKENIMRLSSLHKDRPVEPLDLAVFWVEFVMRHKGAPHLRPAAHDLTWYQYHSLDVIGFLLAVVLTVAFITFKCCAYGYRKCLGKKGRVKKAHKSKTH
Protocol: (§1) FIG. 2 depicts the effect of PP inhibitors on the glucuronidation by UGT1A6, 1A8, 1A10, and 2B7. Each enzyme was incubated with 250 μM of 4-MU or linoleic acid and 0 μM (black), 50 μM (grey), or 200 μM (white) of each inhibitor. Activities are normalized to percent maximal activity.
(§2) FIG. 10 depicts the effect of PP inhibitors on the glucuronidation of 4-MU by UGT1A6, 1A8, and 1A10. Each enzyme was incubated with 250 μM 4-MU and 0, 50, or 200 μM concentrations of each inhibitor. Activities are normalized to percent maximal activity.
(§3) Synthesis of inhibitors was described previously (2).
(§4) Recombinant UGT Isoform Incubations—Recombinant human UGT1A10 and it mutants were produced in baculovirus-infected insect cells as previously described (6, 7). Synthesis of inhibitors was described previously (2). For inhibition assays, UGT recombinant membrane protein (5 μg) was incubated in reaction buffer ([…] Tris-HCl (pH 7.4)/5 mM MgCl2/5 mM saccharolactone) and 2% DMSO with substrate, inhibitor and co-substrate, UDP-GlcUA, in a total volume of 30 μl. Substrates were added in DMSO, and controls were run with each assay. No additional detergents or other activators were used in the incubations. Reactions were started by the addition of co-substrate and incubated at 37° C. (90 min for 8-hydroxywarfarin; 30 min for 4-MU; 30 min for E2). […]

UGT2B7 [4] = target: T2, UGT2B7; test: Screening assay, linoleic acid glucuronidation by UGT2B7; assay type: biochemical; parameters: made in house; host or cells: HEK239 cells (so in the source); settings: 250 μM linoleic acid; 0, 50 or 200 μM inhibitor; FIG. 2
Protocol: as §1, §3

UGT1A8 = target: T4, UGT1A8 (Homo sapiens, UniProt Q9HAW9); test: Screening assay, 4-MU glucuronidation by UGT1A8; assay type: biochemical; settings: 250 μM 4-MU; 0, 50 or 200 μM inhibitor; FIG. 2 / FIG. 10
T4 sequence (Q9HAW9 26-530): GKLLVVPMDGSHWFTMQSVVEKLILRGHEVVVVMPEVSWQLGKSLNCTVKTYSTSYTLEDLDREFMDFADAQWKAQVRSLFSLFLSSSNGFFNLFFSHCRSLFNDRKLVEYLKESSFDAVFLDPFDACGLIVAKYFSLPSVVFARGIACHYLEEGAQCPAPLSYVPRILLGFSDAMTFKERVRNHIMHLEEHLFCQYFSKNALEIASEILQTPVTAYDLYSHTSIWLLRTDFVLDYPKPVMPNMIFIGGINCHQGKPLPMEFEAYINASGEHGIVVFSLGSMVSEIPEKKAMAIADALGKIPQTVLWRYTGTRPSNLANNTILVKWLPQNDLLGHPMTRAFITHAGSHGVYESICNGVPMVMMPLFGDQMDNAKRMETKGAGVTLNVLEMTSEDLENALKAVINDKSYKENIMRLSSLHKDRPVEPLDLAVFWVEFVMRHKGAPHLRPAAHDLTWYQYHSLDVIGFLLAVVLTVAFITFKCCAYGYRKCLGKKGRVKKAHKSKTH
Protocol: as §1, §2, §3, §4

UGT1A6 [5] = target: T1, UGT1A6; test: Screening assay, 4-MU glucuronidation by UGT1A6; assay type: biochemical; settings: 250 μM 4-MU; 0, 50 or 200 μM inhibitor; FIG. 2 / FIG. 10
Protocol: as §1, §2, §3, §4

UGT2B7 [6] = target: T2, UGT2B7; test: IC50 assays, inhibition of UGT2B7 glucuronidation (Example 1); settings: read-out: IC50 (Substrate), linoleic acid ~2 x Km, co-substrate in >5 fold excess
Protocol: as §5, §6, §7

UGT1A10 [7] = target: T3, UGT1A10; test: Ki assays / kinetics and inhibition type, UGT1A10 (Example 1); settings: read-out: Km (Substrate), Km of the aglycone substrate
Protocol: (§8) Recombinant UGT Isoform Incubations—Recombinant human UGT2B7 was produced in HEK239 cells as previously described (6). UGT1A10 was produced as a His-tagged protein in baculovirus-infected Sf9 insect cells as previously described (7, 8). […] For inhibition assays, recombinant UGT membrane protein was incubated in reaction buffer with substrate, inhibitor, and co-substrate as previously described (6, 9).
(§9) Ki assays—UGT2B7 or 1A10 were incubated with a range of at least four different concentrations of inhibitor using varying concentrations of substrate (Ki(substrate)) with a fixed saturating concentration of cosubstrate or with varying concentrations of co-substrate (Ki(UDP-GlcUA)) and a fixed saturating concentration of substrate (FIG. 4).
as §7

UGT1A10 [8] = target: T3, UGT1A10; test: Ki assays / kinetics and inhibition type, UGT1A10 (Example 2)
Protocol: Recombinant UGT Isoform Incubations—Recombinant human UGT1A10 and it mutants were produced in baculovirus-infected insect cells as previously described (6, 7). Synthesis of inhibitors was described previously (2). For inhibition assays, UGT recombinant membrane protein (5 μg) was incubated in reaction buffer ([…] Tris-HCl (pH 7.4)/5 mM MgCl2/5 mM saccharolactone) and 2% DMSO with substrate, inhibitor and co-substrate, UDP-GlcUA, in a total volume of 30 μl. Substrates were added in DMSO, and controls were run with each assay. No additional detergents or other activators were used in the incubations. Reactions were started by the addition of co-substrate and incubated at 37° C. (90 min for 8-hydroxywarfarin; 30 min for 4-MU; 30 min for E2). […] Reactions were stopped by addition of 40 μl of ethanol, and all incubations were performed in duplicate.
TLC Analysis—For inhibition assays using 4-MU, E2, and 8-OH warfarin as substrates, aliquots (60 μl) of each sample were analyzed using thin layer chromatography (TLC) as described previously (3).
Each sample was centrifuged at 14,000 rpm for 8 min to spin down the protein, and 60 μl of the supernatant was analyzed by HPLC as described previously (8).

UGT2B7 [9] = target: T2, UGT2B7; test: Ki assays / kinetics and inhibition type, UGT2B7 (Example 1); settings: human
Protocol: as §8, §9, §7

[10] = substrate: C[C@]12CC[C@@H](O)C[C@@H]1CC[C@@H]1[C@@H]2CC[C@]2(C)C(=O)CC[C@@H]12; test: purified protein, by the assay type; settings: other: UGT2B7; Km of the aglycone substrate
[11] = substrate: O=[N+]([O-])c1ccc(O)cc1; test: purified protein, by the assay type; settings: other: UGT2B7; Km of the aglycone substrate
Protocol: as §8, §9, §7

[12] = read-out: Km (Substrate), UGT1A10, Km of the aglycone substrate, Example 2

CCCCCCCCCC(=O)NC(COC(=O)CS(=O)(=O)OCC1OC(n2ccc(=O)[nH]c2=O)C(O)C1O)Cc1ccccc1 (stereo not drawn) [PP56B]
inhibition type toward UDP-GlcUA (UGT1A6 [1]): competitive | inhibition type with 4-MU (UGT1A6 [1]): competitive | inhibition of 4-methylumbelliferone (4-MU) glucuronidation (UGT1A6 [1]): identified as inhibitors

CCCCCCCCCC(=O)NC(COC(=O)NS(=O)(=O)OCC1OC(n2ccc(=O)[nH]c2=O)C2OC(C)(C)OC12)Cc1ccccc1 (stereo not drawn) [PP50B]
inhibition type toward UDP-GlcUA (UGT1A6 [1]): competitive | inhibition type with 4-MU (UGT1A6 [1]): non-competitive | inhibition of 4-methylumbelliferone (4-MU) glucuronidation (UGT1A6 [1]): identified as inhibitors

CCCCCCCCCC(=O)NC(COC(=O)NCC(=O)NCC1OC(n2ccc(=O)[nH]c2=O)C(O)C1O)C(O)c1ccccc1 (stereo not drawn) [PP36]
IC50 (UGT2B7 [2]): 210 µM | effect on glucuronidation of 4-MU by UGT1A10 (UGT1A10 [3]): least effect | effect on glucuronidation of linoleic acid by UGT2B7 (UGT2B7 [4]): least effect | effect on glucuronidation of 4-MU by UGT1A8 (UGT1A8): least effect | effect on glucuronidation of 4-MU by UGT1A6 (UGT1A6 [5]): least effect | IC50 (UGT2B7 [6]): 740 µM

CCCCCCCCCC(=O)NC(COC(=O)NS(=O)(=O)OCC1OC(n2ccc(=O)[nH]c2=O)C(O)C1O)C(O)c1ccccc1 (stereo not drawn) [PP37]
inhibition type toward UDP-GlcUA (UGT1A6 [1]): competitive | inhibition type with 4-MU (UGT1A6 [1]): competitive | inhibition of 4-methylumbelliferone (4-MU) glucuronidation (UGT1A6 [1]): identified as inhibitors

C[C@]12CC[C@@H]3c4ccc(O)cc4CC[C@H]3[C@@H]1CC[C@@H]2O [E2, reference compound]
Km (UGT1A10 [7]): 46 ± 5 µM | Km (UGT1A10 [8]): 48.3 ± 9 µM

CCCCCCCCCC(=O)NC(COC(=O)NS(=O)(=O)OCC1OC(n2ccc(=O)[nH]c2=O)C2OC(C)(C)OC12)C(O)c1ccccc1 (stereo not drawn) [PP37P]
inhibition type toward UDP-GlcUA (UGT1A6 [1]): competitive | inhibition type with 4-MU (UGT1A6 [1]): competitive | inhibition of 4-methylumbelliferone (4-MU) glucuronidation (UGT1A6 [1]): identified as inhibitors | effect on glucuronidation of 4-MU by UGT1A10 (UGT1A10 [3]): least effect | effect on glucuronidation of linoleic acid by UGT2B7 (UGT2B7 [4]): least effect | effect on glucuronidation of 4-MU by UGT1A8 (UGT1A8): least effect | effect on glucuronidation of 4-MU by UGT1A6 (UGT1A6 [5]): least effect

CC(=O)CC(c1ccccc1)c1c(O)c2ccc(O)cc2oc1=O (stereo not drawn) [7-OH Warfarin, 7-hydroxywarfarin, reference compound]
Km (UGT1A10 [7]): 450 ± 40 µM | Km (UGT1A10 [8]; [12]): 497 ± 61 µM

CCCCC/C=C\C/C=C\CCCCCCCC(=O)O [Linoleic Acid, reference compound]
Km (UGT2B7 [9]): 160 ± 20 µM

CC(=O)CC(c1ccccc1)c1c(O)c2cccc(O)c2oc1=O (stereo not drawn) [8-OH Warfarin, 8-hydroxywarfarin, reference compound]
Km (UGT1A10 [7]): 510 ± 70 µM | Km (UGT1A10 [8]; [12]): 515 ± 17 µM

Cc1cc(=O)oc2cc(O)ccc12 [4-MU, 4-methylumbelliferone, reference compound]
Km (UGT1A10 [7]): 200 ± 20 µM | Km (UGT1A10 [8]; [12]): 91.1 ± 19 µM

B1: UGT2B7 (Homo sapiens) (protein)
chain: GKVLVWAAEYSHWMNIKTILDELIQRGHEVTVLASSASILFDPNNSSALKIEIYPTSLTKTELENFIMQQIKRWSDLPKDTFWLYFSQVQEIMSIFGDITRKFCKDVVSNKKFMKKVQESRFDVIFADAIFPCSELLAELFNIPFVYSLSFSPGYTFEKHSGGFIFPPSYVPVVMSELTDQMTFMERVKNMIYVLYFDFWFEIFDMKKWDQFYSEVLGRPTTLSETMGKADVWLIRNSWNFQFPYPLLPNVDFVGGLHCKPAKPLPKEMEDFVQSSGENGVVVFSLGSMVSNMTEERANVIASALAQIPQKVLWRFDGNKPDTLGLNTRLYKWIPQNDLLGHPKTRAFITHGGANGIYEAIYHGIPMVGIPLFADQPDNIAHMKARGAAVRVDFNTMSSTDLLNALKRVINDPSYKENVMKLSRIQHDQPVKPLDRAVFWIEFVMRHKGAKHLRVAAHDLTWFQYHSLDVIGFLLVCVATVIFIVTKCCLFCFWKFARKAKKGKND
Km [10]: 22 ± 2 µM | Km [11]: 760 ± 130 µM
